Laboratory results: US7507860B2 (Pfizer Inc., priority 2004, dated 2009)
Positions count from the first letter of the chain named.

Tests used:
[1] = target: T1, human androgen receptor (hAR) (Homo sapiens, UniProt P10275); experiment: Competitive binding analysis on baculovirus/Sf9 generated hAR extracts with 3H-DHT tracer; settings: AR Binding IC50 (nM), hAR extract, 1 nM 3H-DHT, one hour at 4° C; mean of multiple tests
T1 construct: made in house; host or cells: baculovirus/Sf9 insect cells (crude extract)
T1 sequence (P10275 1-920): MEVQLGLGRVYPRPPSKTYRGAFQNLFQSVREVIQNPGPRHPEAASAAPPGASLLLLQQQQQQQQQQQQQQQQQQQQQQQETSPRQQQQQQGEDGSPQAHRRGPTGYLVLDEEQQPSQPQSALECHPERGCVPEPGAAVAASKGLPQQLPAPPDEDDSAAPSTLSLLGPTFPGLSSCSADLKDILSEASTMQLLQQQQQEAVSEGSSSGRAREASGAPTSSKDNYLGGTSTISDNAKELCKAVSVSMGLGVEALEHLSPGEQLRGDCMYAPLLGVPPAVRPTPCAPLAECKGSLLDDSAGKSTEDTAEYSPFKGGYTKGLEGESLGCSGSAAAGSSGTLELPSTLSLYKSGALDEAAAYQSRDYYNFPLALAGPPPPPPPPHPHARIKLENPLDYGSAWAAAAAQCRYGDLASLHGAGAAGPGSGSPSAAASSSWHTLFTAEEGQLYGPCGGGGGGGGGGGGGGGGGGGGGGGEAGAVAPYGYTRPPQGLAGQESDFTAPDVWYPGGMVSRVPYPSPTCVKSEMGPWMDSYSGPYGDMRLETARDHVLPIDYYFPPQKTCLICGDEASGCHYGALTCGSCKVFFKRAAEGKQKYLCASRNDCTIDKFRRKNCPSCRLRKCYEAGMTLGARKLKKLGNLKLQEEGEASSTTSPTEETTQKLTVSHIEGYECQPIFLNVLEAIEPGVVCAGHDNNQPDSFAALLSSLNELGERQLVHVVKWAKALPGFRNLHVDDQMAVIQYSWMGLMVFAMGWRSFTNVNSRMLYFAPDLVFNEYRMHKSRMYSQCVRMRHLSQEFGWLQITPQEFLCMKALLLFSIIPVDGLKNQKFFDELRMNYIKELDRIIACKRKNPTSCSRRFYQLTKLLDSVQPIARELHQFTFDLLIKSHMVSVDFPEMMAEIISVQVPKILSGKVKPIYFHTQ
Summary of the method: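 Baculovirus/Sf9-expressed hAR extract incubated with hydroxylapatite, 1 nM 3H-DHT and decreasing compound concentrations for 1 h at 4 °C, then washed three times to remove unbound tracer. Bound 3H-DHT compared with no-competitor maximum; affinity given as concentration inhibiting half of maximum binding, mean of multiple tests.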

[2] = target: T2, androgen receptor (Homo sapiens, UniProt P10275); experiment: AR antagonist cell assay (MDA-MB453-MMTV clone 54-19 luciferase reporter, 100 pM DHT); assay type: cell-based; settings: MDA-MB453-MMTV clone 54-19, inhibition of 100 pM DHT induction, 17 hr; mean of multiple tests; read-out: AR Cell IC50
T2 sequence (P10275 1-920 Q868H): T1 sequence (P10275 1-920) with Q868H
Summary of the method: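 MDA-MB453 cells stably carrying an MMTV-ARE firefly luciferase reporter were plated overnight at 10,000/well in phenol-red-free, charcoal-stripped serum medium. Cells were stimulated with 100 pM DHT (final) for 17 hr at 37 °C, and AR antagonism was read as luciferase signal; values are means of multiple tests.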

Row | SMILES | IC50 [1] | IC50 [2]
1 | CC(C)CC(Oc1ccc(C#N)c(C(F)(F)F)c1)C(=O)NCc1ccccc1 (stereo not shown) [Example 1, 2-(4-Cyano-3-trifluoromethyl-phenoxy)-4-methyl-pentanoic acid benzylamide] | 95 nM | 201 nM
2 | CCCC(Oc1ccc(C#N)c(C(F)(F)F)c1)C(=O)NCc1ccccc1 (stereo not shown) [Example 4, 2-(4-Cyano-3-trifluoromethyl-phenoxy)-pentanoic acid benzylamide] | 445 nM | 57 nM
